In test [1] the target is T1, PAR-4 (Homo sapiens, UniProt Q96RI0).
T1 construct: endogenous in cells; host or cells: washed platelets
T1 sequence (Q96RI0 18-385): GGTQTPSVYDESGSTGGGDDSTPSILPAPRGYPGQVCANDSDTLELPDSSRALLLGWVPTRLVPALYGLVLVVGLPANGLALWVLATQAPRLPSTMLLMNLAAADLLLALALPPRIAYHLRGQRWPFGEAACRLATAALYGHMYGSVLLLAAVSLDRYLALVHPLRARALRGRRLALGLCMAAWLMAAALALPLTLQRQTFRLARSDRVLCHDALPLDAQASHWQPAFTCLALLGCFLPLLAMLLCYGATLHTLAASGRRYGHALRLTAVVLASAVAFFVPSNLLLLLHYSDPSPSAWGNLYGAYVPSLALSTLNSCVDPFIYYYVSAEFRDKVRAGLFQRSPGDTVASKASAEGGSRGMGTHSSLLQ
Briefly: PAC-1 binding assay, washed platelets stimulated with 100 nM gamma-thrombin (flow cytometry). The class given is cell-based. The following applies: 100 nM γ-thrombin stimulation. The text has this:
Gamma-thrombin is a proteolytic product of alpha-thrombin cleavage by a serine protease. Cleavage results in the disruption of exosite I which interacts directly with the hirudin-like domain of its primary substrates fibrinogen and protease-activated receptor 1 (PAR1). […] See Soslau, G., Class, R., Morgan, D. A., Foster, C., Lord, S. T., Marchese, P., and Ruggeri, Z. M. (2001) Unique pathway of thrombin-induced platelet aggregation mediated by glycoprotein Ib, The Journal of biological chemistry 276, 21173-21183. Gamma-thrombin (Enzyme Research Laboratories, South Bend, Indiana) is produced by trypsin-sepharose cleavage of alpha-thrombin. To neutralize alpha-thrombin contamination, stock solutions of gamma-thrombin are preincubated with 1 unit/mL hirudin prior 100 fold dilution into the sample for platelet stimulation. […] Single point screens and concentration response curves are conducted with 316 nanomolar or 100 nanomolar gamma-thrombin using PAC1 and CD62p binding.
(§1) PAC-1 Binding assay: 60 μL of washed platelets (Tyrodes buffer containing 0.1% BSA) at a concentration of 0.15×10^8 platelets/mL were added to 5 mL round bottom polystyrene tubes (BD, Franklin Lakes, N.J.). FITC conjugated PAC-1 (BD Biosciences, San Jose, Calif.) antibody was diluted (to the manufacturers recommended concentration) in Tyrode's buffer containing 0.1% BSA. 40 μL of diluted antibody was added to the platelets and allowed to incubate for 5 minutes. Platelets were pre-treated with indicated concentrations of antagonist or DMSO control for 20 minutes (the final DMSO concentration was 0.5%) followed by addition of PAR-1-AP (GL Biochem, Shanghai, China), PAR-4-AP, or gamma-thrombin for 10 minutes. Platelet activity was quenched by the addition ice cold 1.5% paraformaldehyde followed by dilution in 1× phosphate buffered saline. Platelets were stored up to 18 hours at 4° C. before flow cytometric analysis. Analysis was carried out on a BD FACS Canto II or BD LSRII (Franklin Lakes, N.J.). Fluorescent intensity was determined for at least 20,000 events within the platelet gate (forward scatter versus side scatter). Data was collected and analyzed via FACS DiVa or FlowJo software. Flow cytometric data analysis was conducted by the following method. The DMSO-vehicle treated control was subtracted from each data point. 100% response for PAR-4-AP was determined for each individual as the DMSO treated control stimulated with PAR-4-AP, PAR-1-AP, or gamma-thrombin. Data was plotted in GraphPad PRISM v.5.0. For compounds with a notable reduction in PAC-1 binding response, dose response curves and IC50 values were generated using the inhibitory sigmoidal dose response ‘variable slope’ parameter. Results were plotted as mean±SEM.

The target in test [2] is T1, PAR-4. Briefly: PAC-1 binding assay, washed platelets stimulated with PAR-4-AP (flow cytometry). The class given is cell-based. The following applies: PAR-4-AP stimulation; for remaining activity at 10 µM: 10 μM antagonist, 100% = DMSO control stimulated, read-out: PAR-4 AP % Max PAC-1 binding (10 μM); for IC50: read-out: PAR-4 AP % Max PAC-1 binding (IC50 [M]). As for the experimental part: as §1
Background: In flow cytometry, cells or beads pass a laser one at a time.

With `COc1nn2cc(-c3ccc(OC(F)F)cc3)nc2s1` [Example B28], the IC50 on PAR-4 [1] is over 1000 nM. Further, on PAR-4 [2], the remaining activity at 10 µM was -0.21% and the IC50 was determined as 8.34e-08 M.
The like results for `COc1nn2cc(-c3ccc(C)cc3)nc2s1` [Example B12, 2-methoxy-6-(p-tolyl)imidazo[2,1-b][1,3,4]thiadiazole] were, in that order, over 1000 nM, 1.78% and 5.2e-08 M.
Take `COc1nn2cc(-c3cccc(OCc4csc(-c5ccccc5)n4)c3)nc2s1` [Example B47]: the IC50 on PAR-4 [1] is at least 1000 nM. Further, on PAR-4 [2], the remaining activity at 10 µM was -0.27% and the IC50 came to 4.32e-08 M.
The like results for `COc1nn2cc(-c3cc(C(F)(F)F)cc(C(F)(F)F)c3)nc2s1` [Example B25] were, in that order, over 1000 nM, -0.34% and 5.23e-08 M.
On the same counts, the results for `COc1nn2cc(-c3cccc(Cl)c3)nc2s1` [Example B23] are over 1000 nM, -1.07% and 6.9e-08 M.
Take `COc1nn2cc(-c3ccc4sccc4c3)nc2s1` [Example B54]: the figures for the IC50 at PAR-4 [1] and at PAR-4 [2] were over 1000 nM and 7.75e-08 M, respectively. For the same compound, the remaining activity at 10 µM at PAR-4 [2] was determined as 20.7%.

For orientation: IC50 means the concentration that gives 50% inhibition.
